Legend:
DLD-1 BRCA2(−/−) cells = experiment: Cell growth inhibition assay (CellTiter-Glo), DLD-1 BRCA2(−/−); assay type: cell-based; conditions: 200 cells/well, 7 days, CellTiter Glo 2.0; for EC50: Homo sapiens, DLD-1, 168 h, read-out: DLD-1 BRCA2(−/−) pEC50 (converted)
Procedure: (§1) Cell proliferation was measured through the cell viability assay using DLD-1 BRCA2(−/−) and parental isogenic pair and MDA-MB-436 (mutated BRCA1) cell lines. The CellTiter-Glo (CTG) based cell viability assay is designed to determine the number of viable cells in the culture because of compound effect, by quantifying ATP, which indicates the presence of metabolically active cells.
(§2) DLD-1 BRCA2(−/−) and parental isogenic pair were cultured in RPMI 1640 supplemented with […] (FBS), and […] cells were cultured in DMEM supplemented with 10% FBS. Both were cultured at 37° C. with […]. Invention compounds were distributed to the 384 well plate (Corning, 3764) using Echo acoustic liquid handler to form a 1:3 serially diluted final concentration with top dose of 10 or 30 μM. The cells were seeded into the plate in the density of 50 cells/well (DLD-1 parental), 200 cells/well (DLD-1 BRCA2−/−), or 500 cells/well (MDA-MB-436). After a short spun, the cells were cultured in a well moisturized incubator at 37° C. with 5% CO2 for 7 days without disturbance. The cell viability was measured by CellTiter Glo 2.0 assay kit (Promega, G9243), and growth inhibition rate was calculated and plotted against final compound concentration, and the data were fitted in Xfit to generate IC50 values.

PARP2 = biological target: T1, PARP2 (Homo sapiens, UniProt Q9UGN5); experiment: Biochemical fluorescent polarization (FP) assay, displacement of PARPi-FL, PARP2; assay type: binding; conditions: 20 nM protein, 3 nM PARPi-FL, 4 h at room temperature; read-out: FP PARP2 pIC50 (converted)
T1 construct: made in house
Procedure: (§3) Compounds were characterized using an assay measuring the displacement of a commercially available fluorescently labeled PARP 1/2 inhibitor (PARPi-FL, Tocris Biosciences, #6461) as exemplified in assays performed in WO2014/064149 and WO2021/013735A1. The assay was performed utilizing the following method: Compounds were dissolved in DMSO an Echo550 liquid handler was utilized to make serial dilations in the desired concentration range in Optiplate-384F plates. 100% DMSO was used for the high (with protein) and low (without protein) control samples. 20 nL of compound or DMSO alone was added to individual assay plate wells. PARP1 and PARP2 protein were expressed, purified, and diluted in assay buffer containing 50 mM Tris pH 8.0, 0.001% Triton X-100, 10 mM MgCl2, 150 mM NaCl to a final concentration of 20 nM. The PARPi-FL was then added at a final concentration of 3 nM. The assay plate was centrifuged at 1000 rpm for 1 min and incubated for 4 h at room temperature. […] [formula]

PARP1 = biological target: T2, PARP1 (Homo sapiens, UniProt P09874); experiment: Biochemical fluorescent polarization (FP) assay, displacement of PARPi-FL, PARP1; assay type: binding; conditions: 20 nM protein, 3 nM PARPi-FL, 4 h at room temperature; for IC50: read-out: FP PARP1 pIC50 (converted)
T2 construct: made in house
Procedure: as §3

[1] = tested on: MDA-MB-436 (mutated BRCA1) cells; experiment: Cell growth inhibition assay (CellTiter-Glo), MDA-MB-436; assay type: cell-based; conditions: 500 cells/well, 7 days, CellTiter Glo 2.0; for EC50: Homo sapiens, MDA-MB-436, 168 h, read-out: MDA-MB-436 pEC50 (converted)
Procedure: as §1, §2

T1 sequence (Q9UGN5 whole entry): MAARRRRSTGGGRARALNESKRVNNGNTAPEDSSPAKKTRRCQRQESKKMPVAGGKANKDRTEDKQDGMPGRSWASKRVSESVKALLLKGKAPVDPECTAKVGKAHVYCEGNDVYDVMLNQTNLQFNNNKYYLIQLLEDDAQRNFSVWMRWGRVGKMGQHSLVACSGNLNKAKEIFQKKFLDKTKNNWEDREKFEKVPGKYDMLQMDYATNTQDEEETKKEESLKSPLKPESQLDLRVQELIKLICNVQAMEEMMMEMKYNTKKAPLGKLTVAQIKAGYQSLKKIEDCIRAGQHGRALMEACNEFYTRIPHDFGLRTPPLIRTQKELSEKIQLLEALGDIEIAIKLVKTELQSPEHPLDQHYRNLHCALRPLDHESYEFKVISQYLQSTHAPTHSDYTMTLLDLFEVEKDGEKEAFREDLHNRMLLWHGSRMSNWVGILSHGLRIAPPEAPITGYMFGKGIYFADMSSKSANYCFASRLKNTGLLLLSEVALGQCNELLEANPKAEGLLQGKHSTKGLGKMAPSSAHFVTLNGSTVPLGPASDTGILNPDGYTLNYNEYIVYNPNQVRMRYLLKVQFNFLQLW
T2 sequence (P09874 whole entry): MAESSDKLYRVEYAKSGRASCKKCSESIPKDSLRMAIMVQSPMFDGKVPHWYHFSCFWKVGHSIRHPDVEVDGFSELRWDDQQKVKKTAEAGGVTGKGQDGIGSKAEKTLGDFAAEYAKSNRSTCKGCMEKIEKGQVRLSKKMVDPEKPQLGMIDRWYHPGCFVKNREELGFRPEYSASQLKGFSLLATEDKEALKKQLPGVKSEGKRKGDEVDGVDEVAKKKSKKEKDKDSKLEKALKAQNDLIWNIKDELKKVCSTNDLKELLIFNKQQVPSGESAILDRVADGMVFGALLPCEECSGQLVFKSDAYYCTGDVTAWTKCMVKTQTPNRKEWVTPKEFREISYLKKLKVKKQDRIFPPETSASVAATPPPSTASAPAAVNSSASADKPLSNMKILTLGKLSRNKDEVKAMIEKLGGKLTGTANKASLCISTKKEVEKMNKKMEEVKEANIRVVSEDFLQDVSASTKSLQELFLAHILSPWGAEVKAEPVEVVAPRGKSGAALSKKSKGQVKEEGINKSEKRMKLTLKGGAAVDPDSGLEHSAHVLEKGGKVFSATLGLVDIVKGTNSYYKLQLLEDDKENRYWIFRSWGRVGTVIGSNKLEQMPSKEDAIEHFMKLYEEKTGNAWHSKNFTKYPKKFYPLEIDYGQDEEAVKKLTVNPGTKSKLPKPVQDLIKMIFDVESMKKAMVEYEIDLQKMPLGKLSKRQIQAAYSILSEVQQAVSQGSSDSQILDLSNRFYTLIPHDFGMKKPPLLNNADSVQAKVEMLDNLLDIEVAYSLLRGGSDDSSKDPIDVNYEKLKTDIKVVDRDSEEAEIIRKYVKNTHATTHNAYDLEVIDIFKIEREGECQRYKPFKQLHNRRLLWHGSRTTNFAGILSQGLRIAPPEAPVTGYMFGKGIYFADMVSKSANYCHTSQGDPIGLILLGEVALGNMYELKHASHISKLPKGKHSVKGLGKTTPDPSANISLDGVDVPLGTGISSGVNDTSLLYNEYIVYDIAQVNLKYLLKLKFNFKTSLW

Row | Compound | DLD-1 BRCA2(−/−) pEC50 (DLD-1 BRCA2(−/−) cells) | IC50 (PARP2) | IC50 (PARP1) | MDA-MB-436 pEC50 [1] | EC50 (DLD-1 BRCA2(−/−) cells) | EC50 [1] | FP PARP1 pIC50 (PARP1)
1 | N#Cc1ccc(N2CCN(Cc3cnc4cc(C5CCCO5)c(=O)[nH]c4c3)CC2)nc1 (single isomer, unassigned) [Example 69, 6-(4-{[6-oxo-7-(oxolan-2-yl)-5H-1,5-naphthyridin-3-yl]methyl}piperazin-1-yl)pyridine-3-carbonitrile] | 7.4 | 39800 nM | 10 nM | 7.8 |  |  | 
2 | Cc1c(Cl)c(=O)[nH]c2cc(CN3CCN(c4ccc(C#N)cc4)CC3)cnc12 [Example 2, 4-{4-[(7-chloro-8-methyl-6-oxo-5H-1,5-naphthyridin-3-yl)methyl]piperazin-1-yl}benzonitrile] |  | 7940 nM | 50.1 nM |  | 1.58 nM | 1.26 nM | 
3 | CCc1nc2c(F)cc(CN3CCN(c4ccc(C#N)cn4)CC3)cc2[nH]c1=O [Example 5, 6-(4-((2-ethyl-8-fluoro-3-oxo-3,4-dihydroquinoxalin-6-yl)methyl)piperazin-1-yl)nicotinonitrile] |  | > 100000 nM |  |  | 3.98 nM | 3.98 nM | 8.5
4 | CCc1cc2ncc(CN3CCN(c4ccc(Br)cn4)CC3)cc2[nH]c1=O [Example 7] |  | > 100000 nM | 25.1 nM |  | 6.31 nM | 6.31 nM | 
5 | CCc1cc2ncc(CN3CCN(c4ccc(Cl)cn4)CC3)cc2[nH]c1=O [Example 8] |  | > 100000 nM | 15.8 nM |  | 5.01 nM | 3.16 nM | 
6 | CCc1cc2ncc(CN3CCN(c4ccc(C#N)cc4)CC3)cc2[nH]c1=O [Example 9] |  | 1580 nM | 6.31 nM |  | 0.501 nM | 0.501 nM | 
7 | CCc1cc2ncc(CN3CCN(c4ccc(C#N)cn4)CC3)cc2[nH]c1=O [Example 10] |  | 5010 nM | 5.01 nM |  | 0.794 nM | 0.794 nM | 
8 | Cc1cc2ncc(CN3CCN(c4ccc(C#N)nc4)CC3)cc2[nH]c1=O [Example 11] |  | 79400 nM | 10 nM |  | 20 nM | 39.8 nM | 
9 | Cc1cc2ncc(CN3CCN(c4cc(F)c(C#N)cc4F)CC3)cc2[nH]c1=O [Example 13] |  | > 100000 nM | 5.01 nM |  | 5.01 nM | 3.98 nM | 
10 | O=c1[nH]c2cc(CN3CCN(c4ccc(F)cn4)CC3)cnc2cc1C1CC1 [Example 16, 3-cyclopropyl-7-{[4-(5-fluoropyridin-2-yl)piperazin-1-yl]methyl}-1H-1,5-naphthyridin-2-one] |  | 2510 nM |  |  | 10 nM | 10 nM | 8.5
11 | Cc1cc2ncc(CN3CCN(c4ccc(C#N)cc4F)CC3)cc2[nH]c1=O [Example 18] |  | > 100000 nM | 5.01 nM |  | 3.16 nM | 2.51 nM | 
12 | CCc1cc2ncc(CN3CCN(c4ccc(C#N)cn4)[C@H](C)C3)cc2[nH]c1=O [Example 21] |  | 1260 nM | 5.01 nM |  | 7.94 nM | 12.6 nM | 
13 | C[C@@H]1CN(Cc2cnc3cc(C4CC4)c(=O)[nH]c3c2)CCN1c1ccc(F)cn1 [Example 22] |  | 12600 nM | 7.94 nM |  | 126 nM | 158 nM | 
14 | Cc1cc2ncc(CN3CCN(c4ccc(F)cn4)[C@H](C)C3)cc2[nH]c1=O [Example 23] |  | > 100000 nM | 39.8 nM |  | 100 nM | 200 nM | 
15 | Cc1cc2ncc(CN3CCN(c4ccc(C#N)cn4)[C@H](C)C3)cc2[nH]c1=O [Example 24] |  | > 100000 nM | 10 nM |  | 79.4 nM | 50.1 nM | 
16 | C[C@@H]1CN(Cc2cnc3cc(C4CC4)c(=O)[nH]c3c2)CCN1c1ccc(C#N)cn1 [Example 25] |  | > 100000 nM | 6.31 nM |  | 31.6 nM | 50.1 nM | 

Row | Compound | DLD-1 BRCA2(−/−) pEC50 (DLD-1 BRCA2(−/−) cells) | IC50 (PARP2) | IC50 (PARP1) | MDA-MB-436 pEC50 [1] | EC50 (DLD-1 BRCA2(−/−) cells) | EC50 [1] | FP PARP1 pIC50 (PARP1)
17 | Cc1cc2ncc(CN3CCN(c4ncc(F)cc4F)CC3)cc2[nH]c1=O [Example 26] |  | > 100000 nM | > 100 nM |  | > 1000 nM | > 1000 nM | 
18 | Cc1cc2ncc(CN3CCN(c4ccc(C#N)nc4C4CC4)CC3)cc2[nH]c1=O [Example 27] |  | > 100000 nM | 7.94 nM |  | 12.6 nM | 39.8 nM | 
19 | Cc1cc2ncc(CN3CCN(c4ncc(C#N)cc4F)CC3)cc2[nH]c1=O [Example 30] |  | > 100000 nM | 15.8 nM |  | > 1000 nM | > 1000 nM | 
20 | Cc1cc2ncc(CN3CCN(c4ccc(C#N)nc4C(F)F)CC3)cc2[nH]c1=O [Example 31] |  | > 100000 nM | 6.31 nM |  | 15.8 nM | 6.31 nM | 
21 | CCc1cc2ncc(CN3CCN(c4ccc(F)nc4)CC3)cc2[nH]c1=O [Example 34] |  | 50100 nM | 10 nM |  | 50.1 nM | 39.8 nM | 
22 | Cc1cc2ncc(CN3CCN(c4ccc(F)cc4C#N)CC3)cc2[nH]c1=O [Example 35] |  | 63100 nM | 10 nM |  | 3.16 nM | 2.51 nM | 
23 | Cc1c(Cl)c(=O)[nH]c2cc(CN3CCN(c4ccc(C#N)cn4)CC3)cnc12 [Example 36, 6-{4-[(7-chloro-8-methyl-6-oxo-5H-1,5-naphthyridin-3-yl)methyl]piperazin-1-yl}pyridine-3-carbonitrile] |  | 2000 nM | 5.01 nM |  | 1.26 nM | 1 nM | 
24 | [2H]C([2H])(c1cnc2cc(C)c(=O)[nH]c2c1)N1CCN(c2ccc(C#N)cn2)CC1 [Example 37] |  | > 100000 nM |  |  | 3.16 nM | 1.58 nM | 8.5
25 | CCc1cc2ncc(CN3CCN(c4ccc(C#N)c(F)c4)CC3)cc2[nH]c1=O [Example 38] |  | 501 nM | 5.01 nM |  | 0.631 nM | 0.501 nM | 
26 | CCc1cc2ncc(CN3CCN(c4ccc(C#N)cc4OC)CC3)cc2[nH]c1=O [Example 39] |  | > 100000 nM | 6.31 nM |  | 2 nM | 1.26 nM | 
27 | CCc1cc2ncc(CN3CCN(c4ccc(F)cc4C#N)CC3)cc2[nH]c1=O [Example 40] |  | 12600 nM | 6.31 nM |  | 1 nM | 0.794 nM | 
28 | CCc1cc2ncc(CN3CCN(c4cc(F)c(C#N)cc4F)CC3)cc2[nH]c1=O [Example 41] |  | 2000 nM | 12.6 nM |  | 0.794 nM | 1 nM | 
29 | Cc1c(C(F)F)c(=O)[nH]c2cc(CN3CCN(c4ccc(C#N)cn4)CC3)cnc12 [Example 42, 6-(4-{[7-(difluoromethyl)-8-methyl-6-oxo-5H-1,5-naphthyridin-3-yl]methyl}piperazin-1-yl)pyridine-3-carbonitrile] |  | 316 nM | 50.1 nM |  | 2 nM | 1 nM | 
30 | Cc1cc2ncc(CN3CCN(c4ccc(C#N)cc4)CC3)cc2[nH]c1=O [Example 43] |  | 6310 nM | 5.01 nM |  | 3.16 nM | 2.51 nM | 
31 | Cc1cc2ncc(CN3CCN(c4ccc(C#N)c(F)c4)CC3)cc2[nH]c1=O [Example 44] |  | 3160 nM | 10 nM |  | 2.51 nM | 1.58 nM | 
32 | N#Cc1ccc(N2CCN(Cc3cnc4cc(C(F)F)c(=O)[nH]c4c3)CC2)nc1 [Example 48, 6-(4-{[7-(difluoromethyl)-6-oxo-5H-1,5-naphthyridin-3-yl]methyl}piperazin-1-yl)pyridine-3-carbonitrile] |  | 1260 nM | 3.98 nM |  | 1 nM | 1 nM | 

— patent publication US12384780B2, “PARP1 inhibitors and uses thereof” (XinThera, Inc., priority 2022, dated 2025)
